The target in this experiment is T1, MBP-ANLRP3-HIS (Homo sapiens, UniProt Q96P20, K142A).
T1 construct: made in house; host or cells: Sf21 (IPLB-Sf21-AE) insect cells
The experiment can be described thus: ATPase activity, ADP-Glo Kinase Assay (Promega). As to conditions: read-out: Km of ATP. In kind it is biochemical. The procedure: Peptide mass fingerprinting confirmed the protein identity while intact mass analysis confirmed the overall integrity of the protein and indicated the loss of the amino-terminal methionine. The theoretical molecular weight and isoelectric point (pI) of MBP-NLRP3-HIS are 145.30 kDa and 6.2, respectively. […] MBP-ANLRP3-HIS protein functionality was assessed based on ATPase activity using an ADP-Glo Kinase Assay (Promega). […] This protein construct was shown via its ATPase activity to have acceptable stability up to 2 hours in conditions mimicking one round of selection in the DEL screen.

Structures are written as SMILES.

In general, Km refers to the substrate concentration at which the rate is half of its maximum. For `Nc1ncnc2c1ncn2[C@@H]1O[C@H](COP(=O)(O)OP(=O)(O)OP(=O)(O)O)[C@@H](O)[C@H]1O` [ATP], the Km is 3.08 µM.

Source of the values: patent publication US20250155452A1, “NLRP3 Variants & Library Screen for NLRP3 Inhibitors with the Same” (BioAge Labs, Inc., priority 2023, published 2025).
